Reference: ChEMBL document CHEMBL5113403, “Design, synthesis, and biological evaluation of novel pyrazolo [3,4-d]pyrimidine derivatives as potent PLK4 inhibitors for the treatment of TRIM37-amplified breast cancer” (Eur J Med Chem, 2022)

How the values were obtained:
MDA-MB-231 = test: Antiproliferative activity against human MDA-MB-231 cells assessed as cell growth inhibition incubated for 5 days by MTT assay; assay type: functional, cell-based; conditions: MDA-MB-231, 120 h
MCF7 [1] = test: Antiproliferative activity against human MCF7 cells assessed as cell growth inhibition incubated for 5 days by MTT assay; assay type: functional, cell-based; conditions: MCF7, 120 h
MCF7 [2] = test: Induction of apoptosis in human MCF7 cells assessed as necrotic cells at 0.50 uM incubated for 48 hrs by Annexin-V-FITC/PI staining based flow cytometric analysis (reference value: 0.18 %); assay type: functional; conditions: dose 0.5 µM
[3] = Plasma stability in human assessed as compound remaining at 100 uM measured after 10 mins by LC-MS/MS analysis relative to control; assay type: ADME, cell-free; conditions: read-out: Stability
MCF7 [4] = test: Induction of apoptosis in human MCF7 cells assessed as viable cells at 2.5 uM incubated for 48 hrs by Annexin-V-FITC/PI staining based flow cytometric analysis (reference value: 97 %); assay type: functional
MCF7 [5] = test: Induction of apoptosis in human MCF7 cells assessed as early apoptotic cells at 0.10 uM incubated for 48 hrs by Annexin-V-FITC/PI staining based flow cytometric analysis (reference value: 2.83 %); assay type: functional; conditions: dose 0.1 µM
MCF7 [6] = test: Induction of cell cycle arrest in human MCF7 cells assessed as decrease in G1 phase cells at 1 uM measured after 48 hrs by flow cytometry analysis (reference value: 56.9 %); assay type: functional; parameters: scale not given: the % may be the effect or the level left
MCF7 [7] = test: Induction of cell cycle arrest in human MCF7 cells assessed as greater G1 phase cells at 1 uM measured after 48 hrs by flow cytometry analysis (reference value: 0.78 %); assay type: functional
MCF7 [8] = test: Induction of cell cycle arrest in human MCF7 cells assessed as S phase cells at 0.50 uM measured after 48 hrs by flow cytometry analysis (reference value: 9.31 %); assay type: functional; conditions: dose 0.5 µM
[9] = Clearance in Sprague-Dawley rat at 3 mg/kg, iv by LC-MS/MS analysis; assay type: ADME, organism-based; conditions: in vivo
MCF7 [10] = test: Induction of apoptosis in human MCF7 cells assessed as viable cells at 0.50 uM incubated for 48 hrs by Annexin-V-FITC/PI staining based flow cytometric analysis (reference value: 97 %); assay type: functional; conditions: dose 0.5 µM
MCF7 [11] = test: Induction of apoptosis in human MCF7 cells assessed as early apoptotic cells at 0.50 uM incubated for 48 hrs by Annexin-V-FITC/PI staining based flow cytometric analysis (reference value: 2.83 %); assay type: functional; conditions: dose 0.5 µM
[12] = Metabolic stability in human liver microsomes assessed as compound remaining at 100 uM measured after 60 mins by LC-MS/MS analysis; assay type: ADME, Microsome; conditions: read-out: Stability
MCF7 [13] = test: Induction of apoptosis in human MCF7 cells assessed as late apoptotic cells at 0.10 uM incubated for 48 hrs by Annexin-V-FITC/PI staining based flow cytometric analysis (reference value: 0.019 %); assay type: functional; conditions: dose 0.1 µM

Cc1cc(Nc2nc(NCc3ccc(F)cc3F)nc3c2cnn3C2CCOCC2)n[nH]1
IC50 (MDA-MB-231): 2880 nM
IC50 (MCF7 [1]): 360 nM
Activity (MCF7 [2]): 0.56%
remaining at 10 min, 100 µM [3]: 108%
Activity (MCF7 [4]): 19.7%
Activity (MCF7 [5]): 19.3%
Activity (MCF7 [6]): 21.5%
Activity (MCF7 [7]): 0.61%
Activity (MCF7 [8]): 16.9%
clearance [9]: 47.2 mL/min/kg
Activity (MCF7 [10]): 32.2%
Activity (MCF7 [11]): 59.7%
remaining at 1 h, 100 µM [12]: 106%
Activity (MCF7 [13]): 4.74%
